# Laboratory results published in patent US20050014835A1, “Agents for Treating Diseases Caused by Nonsense Mutations” (priority 2001, published 2005).
# Legend:
# dystrophin [1] = assay: Immunofluorescence staining of dystrophin in TA muscle of drug-treated mdx mice; assay type: in vivo
# Experimental: (§1) Mdx mice were used as a dystrophy mouse model. NM was dissolved in PBS and Millipore-filtered just before injection, in order to avoid degradation during storage in solution. Mdx mice (male, seven week-old, six for each dose) were injected subcutaneously with an NM solution (137 mM NaCl, 2.68 mM KCl, 8.10 mM […], and 1.47 mM KH2PO4) prepared using PBS, at half the concentration (1.2×10^−5 mol/kg) of the solution in the GM experiment by Barton-Davis et al. (Barton-Davis, E. R., Cordiner, L. Shoturma, D. I., Leiland, S. E., Sweeney, H. L. (1999) Aminoglycoside antibiotics restore dystrophin function to skeletal muscles of mdx mice. J. Clin. Invest. 104, 375-381) every day for two weeks. Control mdx mice (n=6) and C57BL/10 (B10, n=6) mice were injected with PBS (0.1 ml) alone, every day for two weeks.
# (§2) After injection, immunofluorescence and Evans Blue staining were performed to detect dystrophin. Immunofluoresce staining was carried out as follows using antibodies against the C-terminus of dystrophin. Animals were sacrificed using an overdose of ether gas. The tibialis anterior (TA) muscles were removed and frozen in melting isopentane for immunohistochemistry. Then, 7 μm transverse cryosections were prepared. […] After labeling with secondary antibodies, dystrophin was detected by fluorescence microscopy, based on fluorescence emission. […]
# dystrophin [2] = assay: Immunoblotting of dystrophin in cultured mdx-sk myotubes; assay type: cell-based, mdx mouse; conditions: 100 μg/ml, seven days
# Description: (§3) The SV40T immortalized mdx satellite cell line, mdx-sk, was newly established from the mdx mouse to test the dystrophin restoring level in cultured mdx skeletal muscle cells. The mdx-sk line was established by introducing a retroviral vector carrying a cDNA for the temperature-sensitive form of the Simian Virus 40 large T antigen (a kind gift from Dr. Drinkwater) to a primary culture of mdx myoblasts obtained from the mdx mice. The retrovirus was produced using the packaging cell line, Plat-E, as previously described (Morita, S., Kojima, T., Kitamura, T. (2000) Plat-E: an efficient andstable system for transient packaging of retroviruses. Gene Therapy 7, 1063-1066). The cell line was cultured and maintained in Dulbecco's Modified Eagle Medium (DMEM)-high glucose (4,500 mg/l) supplemented with 20% fetal calf serum at 32.5° C. in a CO2 incubator. To induce muscle differentiation, the culture medium was changed to a differentiation medium (10% horse serum in Eagle MEM) and the culture temperature was shifted to 39.5° C.
# After induction of differentiation, the cells were cultured, and NM (50 μg/ml (2.0×10^−4 mol/kg) or 100 μg/ml (4.0×10^−4 mol/kg) in a differentiation medium solution) was added to the culture. Then, the cells were allowed to differentiate by culturing in the medium without an antibiotic for seven days. […]
# [3] = Ototoxicity assay: hearing threshold by auditory brain stem response; assay type: in vivo, Mdx mouse; conditions: 1.2×10^−4 mol/kg daily for seven days, measured one day after final injection
# Experimental: One day after the final injection, the hearing threshold was measured based on auditory brain stem response, according to the method of Shapiro et al. (Shapiro, S. M., Moller, A. R., Shiu, G. K. Brain-stem auditory evoked potentials in rats with high-dose pentbarbital. (1984) Electroencephalogr. Clin. Neurophysiol. 58, 266-276).
# [4] = assay type: in vivo; conditions: highest dose 1.2×10^−3 mol/kg/day (100×)
# Experimental: In order to measure changes in body weight due to drug administration, male mdx mice (seven weeks old, four for each dose) were injected daily with NM at 1.2×10^−5 mol/kg (1× the effective dose), 1.2×10^−4 mol/kg (10×), 6.0×10^−4 mol/kg (50×), or 1.2×10^−3 mol/kg (100×) for 14 days. The body weight of each mouse was measured everyday. Other mdx mice (seven weeks old, two for each dose) were injected with GM (1.2×10^−3 mol/kg [100×]) as a control test. Body weight was also measured every day.
# dystrophin [5] = assay: Immunoprecipitation and immunoblotting of dystrophin in muscles of NM-treated mdx mice; assay type: in vivo
# Experimental: The left hind leg muscle (600 mg), the diaphragm (100 mg), and the cardiac muscle (100 mg) were collected from NM-treated mdx mice, NM-untreated mdx mice, and B10 mice as described above. Each of the specimens was homogenized in 15 ml of a homogenizing solution (pH 7.2) (pyrophosphate mixture, 20 mM Na4P2O7, 20 mM NaH2PO4, and 1 mM MgCl2, pH 7.1) containing 10% sucrose and 0.5 mM EDTA. The homogenization was carried out with a Teflon homogenizer at maximal speed for one minute (Mitchell, R. D., Palade, P., and Fleicher, S. (1983) Purification of morphologically intact triad structures from skeletal muscle. J. Cell Biol. 96, 1008-1016; Yoshida, M., Suzuki, A., Shimizu, T., and Ozawa, E. (1992) Proteinase-sensitive sites on isolated rabbit dystrophin. J. Biochem. 112, 433-439). The homogenate was centrifuged in an RA rotor (KUBOTA) at 9,000 rpm for 15 minutes. […]
# Immunoprecipitation was performed as described by Abe et al. (Abe, M., Saitoh, O., Nakata, H., Yoda, A., and Matsuda, R. (1996) Expression of neurofilament proteins in proliferating C2C12 mouse skeletalmuscle cells. Exp. Cell Res. 229, 48-59) using muscle protein sample preparations prepared from mdx mice and B10 mice as described above. […] After boiling, the supernatant was collected, and the protein concentration thereof was determined by microburette method. […]
# TA muscle fibers = assay: Evans Blue Dye staining of degenerating muscle fibers in drug-treated mdx mice; assay type: in vivo; conditions: 1.2×10^−5 mol/kg/day subcutaneously for two weeks, FIG. 2
# Experimental: as §1, §2
# dystrophin [6] = assay: Immunofluorescence staining of dystrophin in cultured mdx-sk myotubes; assay type: cell-based, mdx mouse; conditions: 50 μg/ml, seven days
# Description: as §3, with “39.5° C. […]” for “39.5° C.”
# In order to examine whether NM can restore dystrophin expression in the mdx-sk cells established as described above, NM was added at a concentration of 50 μg/ml or 100 μg/ml to a differentiation medium of myotubes cultured for seven days, and then culture was continued for another seven days. […] The cells were then observed under a fluorescence microscope.
Compound,"percentage of dystrophin-positive TA muscle fibers (dystrophin [1]; 1.2×10^−5 mol/kg/day subcutaneously for two weeks, FIG. 2)","dystrophin-positive fibers by immunofluorescence staining (dystrophin [1]; TA muscle, 1.2×10^−5 mol/kg subcutaneously every day for two weeks)",dystrophin (427 kDa) band by immunoblotting (dystrophin [2]),hearing loss by auditory brain stem response [3],lethality [4],"dystrophin expression level restored, relative to normal B10 hind leg muscle (dystrophin [5]; hind leg muscle, immunoblotting, estimated)","dystrophin bands by immunoblotting (dystrophin [5]; hind leg muscles (FIG. 3(1) G, H, I), 1.2×10^−5 mol/kg/day for two weeks, intensity lower than positive control B10)",percentage of fibers with increased membrane permeability (EBD-positive fibers) (TA muscle fibers),dystrophin expression by immunofluorescence staining (dystrophin [6])
"CN(CC(=O)O)NC(=O)C[C@H](N)C[C@@H](O)CN [NM, negamycin]",higher than in GM-treated mdx mice,detected,a clear band was detected at the position of 427 kDa,not in NM-treated mice,not lethally toxic,about 10%,dystrophin bands were detected,lower in NM-treated mice than in GM-treated mice,strong fluorescence signals were detected
"Gentamicin [GM, reference compound]",–,–,–,–,killed all of the tested mice within four hours,–,–,–,–
